Measurements published in US6737383B1, “Herbicidal oxadiazolidines” (priority 1999, dated 2004).

How the values were obtained:
velvetleaf = test: Test B pre/postemergence velvetleaf; type: in vivo, Abutilon theophrasti
Procedure, shortened: (§1)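 Response is a visual 0-to-10 score relative to untreated plants, where 0 means no effect and 10 means complete control, taken twelve to sixteen days after application. Treatments went onto soil at planting and onto foliage of 1- to 4-leaf plants, using a surfactant-containing non-phytotoxic solvent.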

bedstraw = test: Test B pre/postemergence bedstraw; type: in vivo, Galium aparine
Procedure, shortened: as §1

purple nutsedge = test: Test B pre/postemergence purple nutsedge; type: in vivo, Cyperus rotundus
Procedure, shortened: as §1

corn = test: Test B pre/postemergence corn; type: in vivo, Zea mays
Procedure, shortened: as §1

cocklebur = test: Test B pre/postemergence cocklebur; type: in vivo, Xanthium strumarium
Procedure, shortened: as §1

wheat = test: Test B pre/postemergence wheat; type: in vivo, Triticum aestivum
Procedure, shortened: as §1

rape = test: Test B pre/postemergence rape; type: in vivo, Brassica napus
Procedure, shortened: as §1

giant foxtail = test: Test B pre/postemergence giant foxtail; type: in vivo, Setaria faberii
Procedure, shortened: as §1

crabgrass = test: Test B pre/postemergence crabgrass; type: in vivo, Digitaria sanguinalis
Procedure, shortened: as §1

surinam grass = test: Test B pre/postemergence surinam grass; type: in vivo, Brachiaria decumbens
Procedure, shortened: as §1

sugar beet = test: Test B pre/postemergence sugar beet; type: in vivo, Beta vulgaris
Procedure, shortened: as §1

wild oat = test: Test B pre/postemergence wild oat; type: in vivo, Avena fatua
Procedure, shortened: as §1

soybean = test: Test B pre/postemergence soybean; type: in vivo, Glycine max
Procedure, shortened: as §1

blackgrass = test: Test B pre/postemergence blackgrass; type: in vivo, Alopecurus myosuroides
Procedure, shortened: as §1

pigweed = test: Test B pre/postemergence pigweed; type: in vivo, Amaranthus retroflexus
Procedure, shortened: as §1

morningglory = test: Test B pre/postemergence morningglory; type: in vivo, Ipomoea hederacea
Procedure, shortened: as §1

[1] = Preemergence, Rate 62 g/ha, scale of 0 to 10 where 0 is no effect and 10 is complete control
[2] = Preemergence, Rate 125 g/ha, 0 is no effect, 10 is complete control
[3] = Preemergence, Rate 250 g/ha, scale 0 to 10, 0 is no effect, 10 is complete control
[4] = Preemergence, Rate 500 g/ha, scale 0 to 10 (0 no effect, 10 complete control)
[5] = Rate 250 g/ha, Postemergence, scale 0 to 10, 0 is no effect, 10 is complete control
[6] = Rate 500 g/ha, Postemergence, scale 0 to 10
[7] = Postemergence, Rate 125 g/ha, scale of 0 to 10 where 0 is no effect and 10 is complete control
[8] = Rate 62 g/ha, Postemergence, scale of 0 to 10 where 0 is no effect and 10 is complete control

## Cc1ccccc1-n1c(=O)on(C(=O)N(c2ccc(Br)cc2)C(C)C)c1=O [Compound 175]
velvetleaf; [1]
  Velvetleaf plant response rating: 0
velvetleaf; [2]
  Velvetleaf plant response rating (0 to 10 scale): 0
velvetleaf; [3]
  Velvetleaf plant response rating: 0
velvetleaf; [4]
  Velvetleaf plant response rating: 0
velvetleaf; [5]
  Plant response rating, Velvetleaf: 3
velvetleaf; [6]
  Velvetleaf plant response rating: 3
bedstraw; [7]
  Bedstraw plant response rating: 0
bedstraw; [1]
  Bedstraw plant response rating: 0
bedstraw; [2]
  Bedstraw plant response rating (0 to 10 scale): 2
bedstraw; [3]
  Bedstraw plant response rating: 9
bedstraw; [4]
  Bedstraw plant response rating: 9
bedstraw; [8]
  Bedstraw plant response rating: 0
bedstraw; [5]
  Plant response rating, Bedstraw: 0
bedstraw; [6]
  Bedstraw plant response rating: 0
Purple nutsedge; [7]
  Nutsedge plant response rating: 0
Purple nutsedge; [1]
  Nutsedge plant response rating: 0
Purple nutsedge; [2]
  Nutsedge plant response rating (0 to 10 scale): 0
Purple nutsedge; [3]
  Nutsedge plant response rating: 3
Purple nutsedge; [4]
  Nutsedge plant response rating: 3
Purple nutsedge; [8]
  Nutsedge plant response rating: 0
Purple nutsedge; [5]
  Plant response rating, Nutsedge: 0
Purple nutsedge; [6]
  Nutsedge plant response rating: 0
corn; [7]
  Corn plant response rating: 0
corn; [1]
  Corn plant response rating: 0
corn; [2]
  Corn plant response rating (0 to 10 scale): 0
corn; [3]
  Corn plant response rating: 0
corn; [4]
  Corn plant response rating: 0
corn; [8]
  Corn plant response rating: 0
corn; [5]
  Plant response rating, Corn: 0
corn; [6]
  Corn plant response rating: 0
cocklebur; [7]
  Cocklebur plant response rating: 0
cocklebur; [1]
  Cocklebur plant response rating: 0
cocklebur; [2]
  Cocklebur plant response rating (0 to 10 scale): 0
cocklebur; [3]
  Cocklebur plant response rating: 0
cocklebur; [4]
  Cocklebur plant response rating: 0
cocklebur; [8]
  Cocklebur plant response rating: 0
cocklebur; [5]
  Plant response rating, Cocklebur: 2
cocklebur; [6]
  Cocklebur plant response rating: 3
wheat; [1]
  Wheat plant response rating: 0
wheat; [2]
  Wheat plant response rating (0 to 10 scale): 0
wheat; [3]
  Wheat plant response rating: 0
wheat; [4]
  Wheat plant response rating: 0
wheat; [5]
  Plant response rating, Wheat: 0
wheat; [6]
  Wheat plant response rating: 3
rape; [7]
  Rape plant response rating: 0
rape; [1]
  Rape plant response rating: 0
rape; [2]
  Rape plant response rating (0 to 10 scale): 0
rape; [3]
  Rape plant response rating: 0
rape; [4]
  Rape plant response rating: 0
rape; [8]
  Rape plant response rating: 0
rape; [5]
  Plant response rating, Rape: 0
rape; [6]
  Rape plant response rating: 0
Giant foxtail; [7]
  Giant foxtail plant response rating: 0
Giant foxtail; [1]
  Giant foxtail plant response rating: 5
Giant foxtail; [2]
  Giant foxtail plant response rating (0 to 10 scale): 7
Giant foxtail; [3]
  Giant foxtail plant response rating: 8
Giant foxtail; [4]
  Giant foxtail plant response rating: 8
Giant foxtail; [8]
  Giant foxtail plant response rating: 0
Giant foxtail; [5]
  Plant response rating, Giant foxtail: 0
Giant foxtail; [6]
  Giant foxtail plant response rating: 0
crabgrass; [7]
  Crabgrass plant response rating: 0
crabgrass; [1]
  Crabgrass plant response rating: 5
crabgrass; [2]
  Crabgrass plant response rating (0 to 10 scale): 6
crabgrass; [3]
  Crabgrass plant response rating: 6
crabgrass; [4]
  Crabgrass plant response rating: 8
crabgrass; [8]
  Crabgrass plant response rating: 0
crabgrass; [5]
  Plant response rating, Crabgrass: 0
crabgrass; [6]
  Crabgrass plant response rating: 0
Surinam grass; [7]
  B. signalgrass plant response rating: 0
Surinam grass; [1]
  B. signalgrass plant response rating: 0
Surinam grass; [2]
  B. signalgrass plant response rating (0 to 10 scale): 0
Surinam grass; [3]
  B. signalgrass plant response rating: 0
Surinam grass; [4]
  B. signalgrass plant response rating: 0
Surinam grass; [8]
  B. signalgrass plant response rating: 0
Surinam grass; [5]
  Plant response rating, B. signalgrass: 0
Surinam grass; Rate 500 g/ha, Postemergence, scale 0 to 10, 0 no effect, 10 complete control
  B. signalgrass plant response rating: 0
Sugar beet; [7]
  Sugarbeets plant response rating: 0
Sugar beet; [1]
  Sugarbeets plant response rating: 0
Sugar beet; [2]
  Sugarbeets plant response rating (0 to 10 scale): 0
Sugar beet; [3]
  Sugarbeets plant response rating: 0
Sugar beet; [4]
  Sugarbeets plant response rating: 0
Sugar beet; [8]
  Sugarbeets plant response rating: 0
Sugar beet; [5]
  Plant response rating, Sugarbeets: 0
Sugar beet; [6]
  Sugarbeets plant response rating: 0
Wild oat; [1]
  Wild oats plant response rating: 0
Wild oat; [2]
  Wild oats plant response rating (0 to 10 scale): 0
Wild oat; [3]
  Wild oats plant response rating: 0
Wild oat; [4]
  Wild oats plant response rating: 0
Wild oat; [5]
  Plant response rating, Wild oats: 0
Wild oat; [6]
  Wild oats plant response rating: 0
soybean; [7]
  Soybean plant response rating: 1
soybean; [1]
  Soybean plant response rating: 0
soybean; [2]
  Soybean plant response rating (0 to 10 scale): 0
soybean; [3]
  Soybean plant response rating: 0
soybean; [4]
  Soybean plant response rating: 0
soybean; [8]
  Soybean plant response rating: 1
soybean; [5]
  Plant response rating, Soybean: 1
soybean; [6]
  Soybean plant response rating: 1
blackgrass; [7]
  Blackgrass plant response rating: 0
blackgrass; [1]
  Blackgrass plant response rating: 0
blackgrass; [2]
  Blackgrass plant response rating (0 to 10 scale): 0
blackgrass; [3]
  Blackgrass plant response rating: 0
blackgrass; [4]
  Blackgrass plant response rating: 0
blackgrass; [8]
  Blackgrass plant response rating: 0
blackgrass; [5]
  Plant response rating, Blackgrass: 0
blackgrass; [6]
  Blackgrass plant response rating: 0
pigweed; [7]
  Redroot pigweed plant response rating: 0
pigweed; [1]
  Redroot pigweed plant response rating: 0
pigweed; [2]
  Redroot pigweed plant response rating (0 to 10 scale): 0
pigweed; [3]
  Redroot pigweed plant response rating: 0
pigweed; [4]
  Redroot pigweed plant response rating: 0
pigweed; [8]
  Redroot pigweed plant response rating: 0
pigweed; [5]
  Plant response rating, Redroot pigweed: 0
pigweed; [6]
  Redroot pigweed plant response rating: 0
morningglory; [7]
  Morningglory plant response rating: 1
morningglory; [1]
  Morningglory plant response rating: 0
morningglory; [2]
  Morningglory plant response rating (0 to 10 scale): 0
morningglory; [3]
  Morningglory plant response rating: 0
morningglory; [4]
  Morningglory plant response rating: 0
morningglory; [8]
  Morningglory plant response rating: 1
morningglory; [5]
  Plant response rating, Morningglory: 3
morningglory; [6]
  Morningglory plant response rating: 4
